# In paper PMC5485613, “A novel TRPM8 agonist relieves dry eye discomfort” (BMC Ophthalmology, 2017):
# Where “and” joins values, the source holds several entries; their conditions need not be identical. Identical values can stand only once.
# Assays:
# dry eye mice = assay: Mouse dry eye model (extraorbital lacrimal gland removal): tear volume, blinking, corneal abrasion; format: in vivo; conditions: for Tear secretion (phenol-red thread wetting): mean ± SEM
# Description: C57BL/6 J wild-type mice were purchased from Jackson Laboratory (Stock No. 000664). Adult male mice were anesthetized with xylazine ([…]) and ketamine ([…]) mixture and incisions of 5 mm were made in the skin between the eye and the ear, both extraorbital lacrimal glands were gently isolated by forceps and removed. As mouse has three pairs of lacrimal glands, removing the extraorbital ones will induce partially tear secretion deficiency, but still have other tear sources to be triggered. Sham mice received the same procedure without gland removal. Skin was sutured with 6–0 black monofilament nylon (Ethilon from Ethicon, Inc.). All mice received antibiotics (100 μL Enroflox™, intramuscular daily) and topical analgesia (2% lidocaine gel) for 2 days postoperative. Behavioral assays were done between 2 and 4 weeks after the surgery.
# Tear volume was measured with phenol-red cotton threads (Zone-Quick; Showa Yakuhin Kako CO., Ltd., Tokyo, Japan) as described. The threads were held with forceps and applied to the lateral canthus for 30 s. Immediately afterwards the wetting of the thread was read in mm under a dissection microscope. Corneal abrasion was assessed under cobalt blue light after application of 0.5 μl of 0.25% fluorescein sodium (Bausch & Lomb Inc. Tampa, FL 33637). Grades of abrasion were classified with a grading system that is based on area of corneal staining. Grouping was blinded to the observers. Results were grouped according to the treatments after analysis.
# To determine if C3 affected tear secretion, we tested its effect in mice. Mice were held firmly and 2 μL of C3 or vehicle was wiped gently on eyelid by pipette from nasal side to bitemporal. Tear secretion was increased by C3 in sham-operated animals and in mice in which the extraorbital lacrimal glands were surgically removed (Fig. 4a). […] The positive results in an animal model of DED justified further studies in human subjects.
# [1] = test system: patients with dry eye disease; assay: Single application to eyelids of patients with dry eye disease (Expt 1); format: in vivo, human
# Description: In the first experiment in which only a single application was tested, 60 subjects were randomly assigned using online software (http://www.graphpad.com/quickcalcs/index.cfm). One group received the vehicle solution (distilled water) (N = 30), and the second group received the TRPM8 agonist C3 dissolved in 2 mg/mL in distilled water (N = 30). Test solutions were kept at room temperature and topically applied to the eyelid skin and margins using an absorbent cotton gauze square (0.4 g rectangle (50 mm × 60 mm), CS-being, Daisan Cotton, Japan). A loading volume of 0.5 mL of solution was used to wet the cotton and the square wiped twice across the closed eyelids (Fig. 5c). The off-loaded volume from the gauze was estimated by weighing the square before and after wiping and found to be 6.5 mg or 6.5 μL. For the C3 solution this is equivalent to 13 μg of C3 for both eyes. This method of delivery targets the edges of the closed eyelids and utilizes the eyelashes as a wick to distribute the solution to the mucocutaneous junctions, conjunctiva, and precorneal film. The lid wiper mechanism of the blink further evenly distributes the solution on to the ocular surface. By using this wiping method, bolus delivery of an eye drop to the corneal surface is avoided.
# Subsequently, cooling sensation (every 5 min), TBUT (every 10 min), basal tear secretion (every 20 min), and keratoepitheliopathy (KEP) score (every 30 min) were evaluated for 1 h. In addition, a questionnaire asking the severity of dry eye was used to evaluate the changes in dry eye symptom before and 1 h after application of topical agents. To avoid the effect of topical anesthesia on patient’s sensation, changes in cooling sensation and symptoms of dry eye were evaluated in the right eye, and the remaining examinations including the basal tear secretion measured by Schirmer score with application of topical 0.5% proparacine were performed on the left eye. All examinations were performed by a single masked investigator (K.C.Y) who was not informed of the results of the randomization. All the experiments and the answering the questionnaire were performed in a separate room so that the subjects would not compare the difference of the medications. The room temperature of the study was maintained at 25 °C. Cooling sensation was recorded by subjects using VAS symptom intensity scores on a scale of 0 (no symptom) to 10 (maximum intensity). The severity of dry eye symptoms was graded on a numerical score of 0 to 4 as follows; 0, no symptoms; 1, mild symptoms; 2, moderate symptoms; 3, severe symptoms; and 4, very severe symptoms. TBUT and basal tear secretion (Schirmer score with application of topical 0.5% proparacaine) were measured as previously described. To assess the corneal epithelial damage, the cornea was stained with 1% Fluorescein dye and the severity of KEP was scored by multiplying the area score (0–3) by density score (0–3) of staining.
# [2] = test system: patients with dry eye disease; assay: Four times daily application for 2 weeks in patients with dry eye disease (Expt 2); format: in vivo, human
# Description: Initially, a total of 60 additional patients fulfilling the inclusion criteria were assessed for eligibility, and 54 subjects who decided to participate were randomized into two groups as described above (Additional file 1: Figure S4). Vehicle or C3 were prepared as 1 mL solutions placed into unit applicators called Swabdose™ made by Unicep Corporation, Sandpoint, ID. These applicators are singly encased in a polypropylene container with a 6.35 mm cotton tip attached to a 74.6 mm polystyrene handle. USP purified water (placebo units) or a C3 sample (2 mg/mL in USP purified water) was prepared onsite under clean conditions and packaged with automated equipment. Each subject was given 14 Swabdoses for the 2-week study period. The subjects were instructed to apply the cotton-tipped applicator to the edges of the closed eyelids once every 6 h per day for 14 days. The applicators were pre-weighed and the subjects were told to use to same applicator for each day and to save the applicator in a plastic bag at the end of the day. The applicators were collected, weighed and compared with the weight before application. TBUT, basal tear secretion, and corneal staining assessed by KEP scores were analyzed before and at 1 and 2 weeks thereafter. For TBUT, basal tear secretion, and KEP only the results from the right eye were scored for data analysis.
# Three questionnaires were used at each patient visit to analyze the effects of treatment on ocular discomfort. Firstly, DED symptoms were assessed using a visual analogue scale (VAS) score of 1 to 10. Next, symptoms were assessed using the ocular surface disease index (OSDI) questionnaire, consisting of 12 questions graded on a scale from 0 to 4 (0 = “none of the time” and 4 = “all the time”). An overall score was calculated (0–100) by using the following equation: (25 × (sum of answered question scores/number of questions answered)). Participants were also asked to grade five symptoms associated with the CVS. The symptoms of fatigue, burning, dryness, blurred vision, and dullness of vision was ranked on a scale of 0 to 6 (0 = “no symptom”, 6 = “very severe symptom”) and the average aggregate score for the two test groups are reported.
# [3] = sham group or dry eye mouse model, single administration
# [4] = 2 mg/mL four times a day, versus vehicle
# [5] = 2 mg/mL four times a day, week 1 or week 2, n = 20
structure (smiles),measurement,setting,value
"CCCCCCCCCP(=O)(C(C)C)C(C)C [C3, 1-diisopropylphosphorylnonane]",Tear secretion (phenol-red thread wetting),"dry eye mice; dry eye mice, n = 6, 2 μL wiped on eyelid",1.3 ± 0.4 mm
same,Spontaneous blinking,dry eye mice; [3],not affected
same,corneal abrasion,dry eye mice; [3],not affected
same,Tear secretion (phenol-red thread wetting),"dry eye mice; sham group, n = 5, 2 μL wiped on eyelid",5.4 ± 0.5 mm
same,duration of increase in tear secretion,[1]; 2 mg/mL single application,60 min
same,ocular pain or irritation,[1]; 2 mg/mL single application,None of patients reported
same,basal tear secretion,"[1]; 2 mg/mL single application, 20, 40 and 60 min",significantly increased
same,TBUT,"[1]; 2 mg/mL single application, 30 min and 40 min, above baseline",significantly elevated
same,dry eye symptom score,"[1]; 2 mg/mL single application, 1 h, compared to baseline",improved significantly
same,duration of ocular cooling,"[1]; 2 mg/mL single application, n = 30",46 min and 46 ± 2 min
same,KEP score,"[1]; 2 mg/mL single application, versus vehicle",No differences
same,CVS type of symptoms,"[2]; 2 mg/mL four times a day, 1 and 2 weeks",significantly improved
same,basal tear secretion,"[2]; 2 mg/mL four times a day, 1 and 2 weeks, versus baseline and vehicle",significantly increased
same,severity of symptoms by VAS score,[2]; [4],significantly improved at week 2 but not at week 1
same,total OSDI score,[2]; [4],significantly improved at week 2 but not at week 1
same,KEP,[2]; [5],no significant changes
same,TBUT,[2]; [5],no significant changes
same,"adverse effect (ocular pain, irritation, discomfort)",[2]; 2 weeks study,No significant adverse effect
